Test results published in ChEMBL document CHEMBL1201862, “PubChem BioAssay data set” (2004).
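Cells were grown in 96-well plates and exposed to each compound for 48 hours at five concentrations; endpoints were interpolated linearly between bracketing concentrations, or set to the highest concentration if not reached. GI50 = concentration required for 50% inhibition of growth.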 Activity calls are given as the source filed them. Cut-off read from the data, not from the text of the source: active = GI50 up to about 1.1 µM and inactive = higher.

How the values were obtained:
Assay in all cases: NCI anticancer screen, dose series, 48 h
HL-60 = system: HL-60
T47D = system: T47D
CCRF-CEM = system: CCRF-CEM
NCI-H522 = system: NCI-H522
HCC 2998 = system: HCC 2998
SNB-75 = system: SNB-75
TK-10 = system: TK-10
CAKI-1 = system: CAKI-1
HCT-116 = system: HCT-116
786-0 = system: 786-0
MDA-MB-231 = system: MDA-MB-231
RPMI-8226 = system: RPMI-8226
KM12 = system: KM12
MDA-MB-435 = system: MDA-MB-435
IGROV-1 = system: IGROV-1
SF-295 = system: SF-295
OVCAR-4 = system: OVCAR-4
SK-OV-3 = system: SK-OV-3
UACC-62 = system: UACC-62

Row | Structure (SMILES) | GI50 (HL-60) | GI50 (T47D) | GI50 (CCRF-CEM) | GI50 (NCI-H522) | GI50 (HCC 2998) | GI50 (SNB-75) | GI50 (TK-10) | GI50 (CAKI-1) | GI50 (HCT-116) | GI50 (786-0) | GI50 (MDA-MB-231) | GI50 (RPMI-8226) | GI50 (KM12) | GI50 (MDA-MB-435) | GI50 (IGROV-1) | GI50 (SF-295) | GI50 (OVCAR-4) | GI50 (SK-OV-3) | GI50 (UACC-62)
1 | CSc1ncnc2c1ncn2CCC(=O)OC(C)(C)C | > 100 µM (inactive) | > 100 µM (inactive) | > 100 µM (inactive) | > 100 µM (inactive) | > 100 µM (inactive) | > 100 µM (inactive) | > 100 µM (inactive) | > 100 µM (inactive) | > 100 µM (inactive) | > 100 µM (inactive) | > 100 µM (inactive) | > 100 µM (inactive) | > 100 µM (inactive) | > 100 µM (inactive) | > 100 µM (inactive) | > 100 µM (inactive) | > 100 µM (inactive) | > 100 µM (inactive) | –
2 | CCNC(=S)/N=c1\sc(NCC)nc2sc3c(c12)CCN(N1CCc2c(sc4nc(NCC)s/c(=N\C(=S)NCC)c24)C1)C3 | 98.2 µM (inactive) | 42.4 µM (inactive) | 41.9 µM (inactive) | 65.6 µM (inactive) | > 100 µM (inactive) | > 100 µM (inactive) | > 100 µM (inactive) | > 100 µM (inactive) | 19.5 µM (inactive) | 26.6 µM (inactive) | 29.5 µM (inactive) | – | 40.2 µM (inactive) | 97.5 µM (inactive) | 39.8 µM (inactive) | 72.4 µM (inactive) | 86.1 µM (inactive) | > 100 µM (inactive) | > 100 µM (inactive)
3 | CCN(CC)CCCNc1nncc2cc3c([nH]c4ccccc43)c(C)c12 | 5.02 µM (inactive) | 13.3 µM (inactive) | 4.1 µM (inactive) | 4.15 µM (inactive) | 11 µM (inactive) | 13.2 µM (inactive) | 20.9 µM (inactive) | 33.4 µM (inactive) | 6.01 µM (inactive) | 5.53 µM (inactive) | 4.65 µM (inactive) | 12 µM (inactive) | 5.18 µM (inactive) | 18.2 µM (inactive) | 3.12 µM (inactive) | 16 µM (inactive) | – | 15.2 µM (inactive) | 15.7 µM (inactive)
4 | Cc1nc(-c2cc3c(ccc4ccccc43)oc2=O)cs1 | > 100 µM (inactive) | > 100 µM (inactive) | > 100 µM (inactive) | 35.2 µM (inactive) | > 100 µM (inactive) | 36.6 µM (inactive) | 46.7 µM (inactive) | > 100 µM (inactive) | > 100 µM (inactive) | 39.1 µM (inactive) | 70.5 µM (inactive) | > 100 µM (inactive) | > 100 µM (inactive) | > 100 µM (inactive) | 21.5 µM (inactive) | 41.8 µM (inactive) | 37.7 µM (inactive) | 37.8 µM (inactive) | 26 µM (inactive)
5 | O=C(Cc1nccc2c1[nH]c1ccccc12)OC1C#CCSCC#C/C=C\1 (stereo unspecified) | 57 µM (inactive) | 72.1 µM (inactive) | 38.8 µM (inactive) | 44.2 µM (inactive) | > 100 µM (inactive) | – | > 100 µM (inactive) | > 100 µM (inactive) | 50 µM (inactive) | > 100 µM (inactive) | > 100 µM (inactive) | > 100 µM (inactive) | > 100 µM (inactive) | 75.7 µM (inactive) | > 100 µM (inactive) | 87.9 µM (inactive) | > 100 µM (inactive) | > 100 µM (inactive) | > 100 µM (inactive)
6 | O=C1C(Cl)C2(CC(/C=C/c3ccccc3)=NN2c2cccc(S(=O)(=O)O)c2)N1c1nc2ccccc2s1 (stereo unspecified) | 14.9 µM (inactive) | 11 µM (inactive) | 12.4 µM (inactive) | 6.53 µM (inactive) | 14.4 µM (inactive) | 15.3 µM (inactive) | 16.9 µM (inactive) | 9.46 µM (inactive) | 21.1 µM (inactive) | 17.3 µM (inactive) | 12.2 µM (inactive) | 13.8 µM (inactive) | 16.3 µM (inactive) | 21.4 µM (inactive) | 8.55 µM (inactive) | – | 16.4 µM (inactive) | – | 14 µM (inactive)
7 | O=C(N1CCN(c2ccccc2)CC1)N(C(=O)C1(c2ccc(Cl)cc2)CCCC1)S(=O)(=O)c1ccccc1 | 27.7 µM (inactive) | 27.7 µM (inactive) | 29.7 µM (inactive) | 15.4 µM (inactive) | 23.9 µM (inactive) | 52.2 µM (inactive) | 41.4 µM (inactive) | 26.5 µM (inactive) | 22.5 µM (inactive) | 34.5 µM (inactive) | 26.6 µM (inactive) | 38.3 µM (inactive) | 35.9 µM (inactive) | 43.8 µM (inactive) | – | 24.6 µM (inactive) | 24.1 µM (inactive) | 30 µM (inactive) | 20.6 µM (inactive)
8 | COc1ccc(-c2c(C(C)=O)c(C)n(C3OC(COC(C)=O)C(OC(C)=O)C(OC(C)=O)C3OC(C)=O)c(=S)c2C#N)cc1 (stereo unspecified) | 63.5 µM (inactive) | > 100 µM (inactive) | 42.3 µM (inactive) | > 100 µM (inactive) | > 100 µM (inactive) | 75.5 µM (inactive) | > 100 µM (inactive) | 28.9 µM (inactive) | 72.1 µM (inactive) | 62.1 µM (inactive) | 29.1 µM (inactive) | – | > 100 µM (inactive) | > 100 µM (inactive) | > 100 µM (inactive) | 69 µM (inactive) | 73.1 µM (inactive) | > 100 µM (inactive) | 36.6 µM (inactive)
9 | CCOC(=O)C1(O)C(=O)C2=C3C(=O)OC(C4OC(=O)c5c(c(O)c(O)c(O)c5C31)-c1c(cc(O)c(O)c1O)C(=O)OC1COC(=O)c3cc(O)c(O)c(O)c3-c3c(cc(O)c(O)c3O)C(=O)OC14)[C@@H]2O (stereo partly specified) | 19.1 µM (inactive) | 24.8 µM (inactive) | 17.2 µM (inactive) | 21 µM (inactive) | 25.7 µM (inactive) | – | – | 13 µM (inactive) | 15.6 µM (inactive) | 19.2 µM (inactive) | 15.2 µM (inactive) | 28.5 µM (inactive) | 33.7 µM (inactive) | 13 µM (inactive) | 26 µM (inactive) | 19.1 µM (inactive) | 17.6 µM (inactive) | 61.8 µM (inactive) | 20 µM (inactive)
10 | COC(=O)/N=[N+](\[O-])C(c1ccc(OC)cc1)C1CCCCC1 (stereo unspecified) | 0.787 µM (active) | 0.303 µM (active) | 2.2 µM (inactive) | 1.03 µM (active) | 2.12 µM (inactive) | 5.22 µM (inactive) | 3.58 µM (inactive) | 2.12 µM (inactive) | 0.652 µM (active) | 3.82 µM (inactive) | 3 µM (inactive) | 0.948 µM (active) | 2.39 µM (inactive) | 5.01 µM (inactive) | 4.18 µM (inactive) | 1.82 µM (inactive) | 0.802 µM (active) | 3.67 µM (inactive) | 6.03 µM (inactive)
11 | CC(CCOc1ccc2ccc(=O)oc2c1)C1=CC(=O)C(C)(C)O1 (stereo unspecified) | 1.85 µM (inactive) | 2.02 µM (inactive) | 0.499 µM (active) | 1.51 µM (inactive) | 2.67 µM (inactive) | – | 3.34 µM (inactive) | 2.86 µM (inactive) | 2.64 µM (inactive) | 2.2 µM (inactive) | 3.15 µM (inactive) | 1.95 µM (inactive) | 2.17 µM (inactive) | 2.56 µM (inactive) | 3.2 µM (inactive) | 3.94 µM (inactive) | 5.73 µM (inactive) | 3.53 µM (inactive) | 3.72 µM (inactive)
12 | CC(=O)Oc1ccc(-c2cc3ccccc3oc2=O)cc1OC(C)=O | 1.89 µM (inactive) | 36.2 µM (inactive) | 5.3 µM (inactive) | 3.78 µM (inactive) | 18.7 µM (inactive) | 26.9 µM (inactive) | 22.1 µM (inactive) | – | 34.7 µM (inactive) | 21.7 µM (inactive) | 28.6 µM (inactive) | 12.7 µM (inactive) | 11.8 µM (inactive) | 27.1 µM (inactive) | – | 28.2 µM (inactive) | 51.3 µM (inactive) | – | –
13 | Cc1ncc([N+](=O)[O-])n1CCNC(=O)CCCn1cnc([N+](=O)[O-])n1 | > 100 µM (inactive) | > 100 µM (inactive) | > 100 µM (inactive) | > 100 µM (inactive) | > 100 µM (inactive) | 98.6 µM (inactive) | > 45.8 µM (inactive) | > 100 µM (inactive) | > 100 µM (inactive) | > 100 µM (inactive) | > 100 µM (inactive) | > 100 µM (inactive) | > 100 µM (inactive) | > 100 µM (inactive) | > 100 µM (inactive) | > 100 µM (inactive) | > 100 µM (inactive) | > 100 µM (inactive) | > 100 µM (inactive)
14 | Oc1cc2c3c(c1)c1cc4c(cc1c[n+]3CC2)OCO4 | 3.97 µM (inactive) | 3.47 µM (inactive) | 2.84 µM (inactive) | 0.492 µM (active) | 4.4 µM (inactive) | 2.25 µM (inactive) | 13 µM (inactive) | 10.2 µM (inactive) | 1.55 µM (inactive) | 1.08 µM (active) | 2.79 µM (inactive) | 1.77 µM (inactive) | 1.82 µM (inactive) | 5.5 µM (inactive) | 2.4 µM (inactive) | 2.97 µM (inactive) | 3.64 µM (inactive) | 16.1 µM (inactive) | 7.83 µM (inactive)
